Measurements taken from the NIST ThermoML archive (doi:10.1021/acs.jced.8b00780).
Numbers after ± are expanded uncertainties.

Conditions: Crystal; DTA

- Normal melting temperature: 231.98 ± 1.1 °C
SMILES: C=C1C[C@@]23CC[C@H]4[C@@](C)(CCC[C@@]4(C)C(=O)O[C@@H]4O[C@H](CO)[C@@H](O)[C@H](O)[C@H]4O)[C@@H]2CC[C@]1(O[C@@H]1O[C@H](CO)[C@@H](O)[C@H](O[C@@H]2O[C@H](CO)[C@@H](O)[C@H](O)[C@H]2O)[C@H]1O[C@@H]1O[C@H](CO)[C@@H](O)[C@H](O)[C@H]1O)C3 [rebaudioside A]
